“And” between values parts separate entries of the source, which are not always exact repeats. Identical values can stand only once. “Also recorded” adds a separate entry of the source.
How the values were obtained:
[1] = tested on: hair cells (IHC, OHC) of the organ of Corti; experiment: Cytocochleograms of missing hair cells after noise exposure (Example 2); assay type: in vivo, guinea pig; details: 2 weeks after noise exposure
[2] = tested on: outer sensory hair cells of the organ of Corti; experiment: Cytocochleogram counts of lost outer sensory hair cells after noise trauma (Example 1); assay type: in vivo, guinea pig; details: day 21
Description: Baseline hearing of 8 pigmented guinea pigs (200-300 g) was tested by ABR as described below. ABR is a measure of hearing function. Four animals were treated with daily subcutaneous (s.c.) injections of the compound of Formula II, 1 mg/kg, starting 24 hours prior to noise trauma and lasting until 21 days after exposure to the noise trauma. Four animals served as controls and received only vehicle (the fourth animal died under anaesthesia). All the animals were exposed to traumatic octave band noise, center frequency 4.0 kHz, 125 dB SPL (sound pressure level) for 105 min.
After the treatment period of 21 days and measurement of ABRs, the animals were sacrificed and the temporal bones fixed by 4% PFA (paraformaldehyde) through perilymphatic perfusion. The left cochleas were dissected for surface specimens and the number of sensory hair cells in each auditory organ was evaluated by cytocochleograms. The upper halves of the cochleas were processed for cytocochleograms without embedding by staining cochlear whole mounts with rhodamine phalloidine (Molecular Probes, Eugene, Ore.) in PBS containing 0.25% Triton X-100 overnight at 4° C and mounted in Vectashield (Vector). Phalloidin is a specific marker for cellular F-actin. Basal halves of the cochleas were embedded in
Epon and processed for cytocochleograms. Selected sections of Epon-embedded cochlear turns were processed for fine structural study by electron microscopy.

[3] = tested on: vestibular hair cells (ampullary cristae); experiment: Hair cell counts in ampullary cristae after gentamicin treatment; assay type: in vivo, guinea pig
Description: Two experimental groups were formed. Group 1 guinea pigs served as control and were treated with gentamicin only. The animals were injected s.c. with gentamicin at 120 mg/kg body weight, once daily for 14 days. Three guinea pigs (yielding a total of 6 inner ears) were included in this group. The animals were decapitated 30 days after the start of the injections.
Group 2 guinea pigs were treated with gentamicin plus Formula II. The animals were injected s.c. with GM at 120 mg/kg body weight, plus Formula II at 1 mg/kg, once daily for 14 days. Formula II treatment started 1 day before GM injections. Formula II treatment was continued for 28 or 29 days. Four guinea pigs (8 inner ears) were included in this group. The animals were decapitated 30 days after the start of GM injections.
Guinea pigs were decapitated under deep anaesthesia and the inner ears were perilymphatically fixed and immersed with 2.5% glutaraldehyde in 0.1 M phosphate buffer (pH 7.4), postfixed with 1% osmium tetroxide, and embedded in Epon. Cochleas were processed for cytocochleograms (Ylikoski, Acta Otolaryngol (Stockh) Suppl 326:5-20, 1975). The separately dissected and Epon-embedded vestibular organs were cut for 1 μm-thick sections. Every 25th section was collected onto slides and stained with 1% toluidine blue. […] Two control (GM-treated) and 3 Formula II plus GM-treated ampullae were used for analysis. The presence of cell nuclei in the sensory layer (upper half) of the sensory epithelium was regarded as the presence of hair cells. Supporting cell nuclei were clearly distinguished from hair cells by their position (lower part) in the epithelium and by toluidine blue that stains the hair cells weaker than the supporting cells. Hair cell loss was measured by comparing the number of hair cell nuclei in the sensory layer to the number of […].

[4] = tested on: hair cells of cochlear explants; experiment: TUNEL staining of hair cells in neomycin-exposed cochlear explants; assay type: cell-based, rat; details: 500 nM Formula II coincubated with neomycin; n=5 explants
Description: Six, 12 and 24 hr after adding 100 μM neomycin to the medium, cochlear cultures were fixed with 4% paraformaldehyde in PBS for 30 min. The specimens were prepared for 5 um-thick paraffin sections. They were stained with a TUNEL-kit, mounted in Vectashield containing DAPI nuclear counterstain (Vector, Burlingame, Calif.), and viewed under an Olympus Provis microscope (Tokyo, Japan) using epifluorescence. In addition to TUNEL-staining, DNA fragmentation was verified under UV illumination using DAPI counterstain.

[5] = single animal, 1 mg/kg s.c. daily, noise 125 dB SPL 105 min, 1 mg/kg

CCSCc1ccc2c(c1)c1c3c(c4c5cc(CSCC)ccc5n5c4c1n2C1C[C@](O)(C(=O)OC)[C@]5(C)O1)CNC3=O [Formula II]
hair cell loss versus noise-exposed control (cytocochleograms) ([1]; in words): rescues IHCs as well as OHCs of each of the 3 rows; also recorded: significantly lower percentage of sensory hair cells were lost | extent of the area of destruction of the organ of Corti ([1]; Formula II treated cochleas): 0.1-0.2 mm | % OHC LOST, MEAN ([2]; mean of 4 Formula II animals): 6.1% | LOST OUTER SENSORY CELLS (OHC): OCH1, MEAN ([2]; mean of 4 Formula II animals): 133 | LOST OUTER SENSORY CELLS (OHC): OCH2, MEAN ([2]; mean of 4 Formula II animals): 107 | LOST OUTER SENSORY CELLS (OHC): OCH3, MEAN ([2]; mean of 4 Formula II animals): 143 | TOTAL OHC LOST, MEAN ([2]; mean of 4 Formula II animals): 383 | % OHC LOST [2, 5]: 3.1% and 0.8% and 1.4% and 19.0% | LOST OUTER SENSORY CELLS (OHC): OCH1 [2, 5]: 90 and 19 and 36 and 356 | LOST OUTER SENSORY CELLS (OHC): OCH2 [2, 5]: 25 and 3 and 18 and 381 | LOST OUTER SENSORY CELLS (OHC): OCH3 [2, 5]: 71 and 27 and 46 and 428 | TOTAL OHC LOST [2, 5]: 186 and 49 and 100 and 1195 | Total number of hair cells ([3]; GM + Formula II, single ampulla, all sections counted): 518 and 328 and 620 | Hair cells per frame ([3]; GM + Formula II, single ampulla, decimal comma): 1,9 and 2,2 | protective effect in the ampullae ([3]; gentamicin 120 mg/kg plus Formula II 1 mg/kg, relative hair cell loss, n=3 ampullae): 70% | TUNEL-labeling in hair cells [4]: prevented

From US6448283B1, “Methods for preventing/treating damage to sensory hair cells and cochlear neurons” (Cephalon, Inc., priority 1998, dated 2002)
